Assay results: patent US20020035061A1, “COMPOSITIONS AND METHODS FOR TREATING INFECTIONS USING CATIONIC PEPTIDES ALONE OR IN COMBINATION WITH ANTIBIOTICS” (priority 1996, published 2002)
Like-named read-outs stand apart in the source and are kept apart here.

Assays:
Format in all cases: cell-based
S. epidermidis = test system: S. epidermidis
S. maltophilia = test system: S. maltophilia
P. aeruginosa = test system: P. aeruginosa
K. pneumoniae = test system: K. pneumoniae
E. coli = test system: E. coli
E. faecalis = test system: E. faecalis
E. cloacae = test system: E. cloacae
S. marcescens = test system: S. marcescens
A. calcoaceticus = test system: A. calcoaceticus
S. aureus = test system: S. aureus
[1] = test system: vancomycin / teicoplanin resistant enterococci; assay: microbe, parasite or virus in culture; settings: E. faecalis EFS008
[2] = test system: inherently resistant microorganisms; assay: microbe, parasite or virus in culture; settings: for Peptide MIC Alone: Amikacin section; for FIC: peptide + Amikacin
[3] = test system: microorganisms with acquired resistance; assay: microbe, parasite or virus in culture; settings: for Peptide MIC Alone: Gentamicin section; for FIC: peptide + Gentamicin
bacterial isolates = assay: microbe, parasite or virus in culture; settings: for Peptide MIC Alone: 4. Gentamicin; for FIC: peptide + Gentamicin
[4] = S. maltophilia (strain line r400 not shown)

## ILRWPWWPWRAK [MBI 11H11CN]
S. epidermidis; S. epidermidis SE010
  MIC: 4 µg/mL
S. maltophilia; S. maltophilia SMA002
  MIC: 64 µg/mL
P. aeruginosa; P. aeruginosa PA004
  MIC: >128 µg/mL
K. pneumoniae; K. pneumoniae KP001
  MIC: 16 µg/mL
E. coli; E. coli ECO005
  MIC: 16 µg/mL
E. faecalis; E. faecalis EFS001
  MIC: 2 µg/mL
E. faecalis; E. faecalis EFS008
  MIC: 8 µg/mL
E. cloacae; E. cloacae ECL007
  MIC: >128 µg/mL
S. marcescens; S. marcescens SMS003
  MIC: >128 µg/mL
A. calcoaceticus; A. calcoaceticus AC002
  MIC: 4 µg/mL
S. aureus; S. aureus SA014
  MIC: 4 µg/mL
S. aureus; S. aureus SA093
  MIC: 1 µg/mL

## ILRWPWWPWRRKDMILKKAGS [MBI 11B18CN]
S. epidermidis; S. epidermidis strain SE010
  MIC: 4 µg/mL
S. maltophilia; S. maltophilia strain SMA002
  MIC: 64 µg/mL
P. aeruginosa; P. aeruginosa strain PA004
  MIC: >128 µg/mL
K. pneumoniae; K. pneumoniae strain KP001
  MIC: 32 µg/mL
E. coli; E. coli strain ECO005
  MIC: 32 µg/mL
E. faecalis; E. faecalis strain EFS008
  MIC: 4 µg/mL
E. cloacae; E. cloacae strain ECL007
  MIC: >128 µg/mL
S. marcescens; S. marcescens strain SMS003
  MIC: >128 µg/mL
A. calcoaceticus; A. calcoaceticus strain AC002
  MIC: 2 µg/mL
S. aureus; S. aureus strain SA093
  MIC: 2 µg/mL

## ILRWPWAPWRRK [MBI 11H07CN]
S. epidermidis; S. epidermidis SE010
  MIC: 16 µg/mL
S. maltophilia; S. maltophilia SMA002
  MIC: 128 µg/mL
P. aeruginosa; P. aeruginosa PA004
  MIC: >128 µg/mL
K. pneumoniae; K. pneumoniae KP001
  MIC: 128 µg/mL
E. coli; E. coli ECO005
  MIC: 32 µg/mL
E. faecalis; E. faecalis EFS001
  MIC: 4 µg/mL
E. faecalis; E. faecalis EFS008
  MIC: 16 µg/mL
E. cloacae; E. cloacae ECL007
  MIC: >128 µg/mL
S. marcescens; S. marcescens SMS003
  MIC: >128 µg/mL
A. calcoaceticus; A. calcoaceticus AC002
  MIC: 8 µg/mL
S. aureus; S. aureus SA014
  MIC: 8 µg/mL
S. aureus; S. aureus SA093
  MIC: 2 µg/mL

## KKAAAKAAAAAKAAWAAKAAAKKKK [Deber A2KA2, reference compound]
[1]
  Amikacin MIC + Peptide: 8 µg/mL
  Peptide MIC + Amikacin: 16 µg/mL
[1]; Amikacin section
  Peptide MIC Alone: >128 µg/mL
[1]; peptide + Amikacin
  FIC: 0.19
[2]; A. baumannii
  Peptide MIC + Amikacin: 32 µg/mL
  Peptide MIC Alone: >128 µg/mL
  FIC: 0.63
[2]; S. aureus MRSA
  Peptide MIC + Amikacin: 8 µg/mL
  Peptide MIC Alone: 16 µg/mL
  FIC: 0.50
[3]; A. calcoaceticus AC001
  Gentamicin MIC + Peptide: 4 µg/mL
  Peptide MIC + Gentamicin: 16 µg/mL
  Peptide MIC Alone: >128 µg/mL
  FIC: 0.56
[3]; P. aeruginosa PA041
  Gentamicin MIC + Peptide: 4 µg/mL
  Peptide MIC + Gentamicin: 64 µg/mL
  Peptide MIC Alone: >128 µg/mL
  FIC: 0.50
Bacterial isolates; A. baumannii ABI001
  Peptide MIC Alone: >128 µg/mL
  Gentamicin MIC + Peptide: 32 µg/mL
  Peptide MIC + Gentamicin: 8 µg/mL
  FIC: 0.53
Bacterial isolates; A. baumannii ABI002
  Peptide MIC Alone: >128 µg/mL
  Gentamicin MIC + Peptide: 32 µg/mL
  Peptide MIC + Gentamicin: 0.125 µg/mL
  FIC: 0.50
Bacterial isolates; A. calcoaceticus AC001
  Peptide MIC Alone: >128 µg/mL
  Gentamicin MIC + Peptide: 4 µg/mL
  Peptide MIC + Gentamicin: 16 µg/mL
  FIC: 0.56
Bacterial isolates; P. aeruginosa PA022
  Peptide MIC Alone: >128 µg/mL
  Gentamicin MIC + Peptide: 16 µg/mL
  Peptide MIC + Gentamicin: 4 µg/mL
  FIC: 0.52
Bacterial isolates; P. aeruginosa PA041
  Peptide MIC Alone: >128 µg/mL
  Gentamicin MIC + Peptide: 8 µg/mL
  Peptide MIC + Gentamicin: 0.125 µg/mL
  FIC: 0.50
Bacterial isolates; [4]
  Peptide MIC Alone: >128 µg/mL
  Gentamicin MIC + Peptide: 64 µg/mL
  Peptide MIC + Gentamicin: 0.125 µg/mL
  FIC: 0.50
Bacterial isolates; S. maltophilia SMA017
  Peptide MIC Alone: >128 µg/mL
  Gentamicin MIC + Peptide: 64 µg/mL
  Peptide MIC + Gentamicin: 0.125 µg/mL
  FIC: 0.50
